{"source": "patent US20220088016A1", "about": "“CANCER TREATMENT USING MULTI-TARGETED KINASE INHIBITOR IN COMBINATION OF PROTEIN KINASE BIOMARKERS” (ZHEJIANG CROWNMAB BIOTECH CO. LTD., priority 2019, published 2022)", "experiment_in_all_cases": "Kinase profiling", "assay_type_in_all_cases": "binding", "settings_in_all_cases": "read-out: % Ctrl @ 1000 nM", "key": {"ABL1-phosphorylated": {"biological_target": "ABL1-phosphorylated (Homo sapiens, UniProt P00519)"}, "AKT2": {"biological_target": "AKT2 (Homo sapiens, UniProt P31751)", "sequence (P31751 whole entry)": "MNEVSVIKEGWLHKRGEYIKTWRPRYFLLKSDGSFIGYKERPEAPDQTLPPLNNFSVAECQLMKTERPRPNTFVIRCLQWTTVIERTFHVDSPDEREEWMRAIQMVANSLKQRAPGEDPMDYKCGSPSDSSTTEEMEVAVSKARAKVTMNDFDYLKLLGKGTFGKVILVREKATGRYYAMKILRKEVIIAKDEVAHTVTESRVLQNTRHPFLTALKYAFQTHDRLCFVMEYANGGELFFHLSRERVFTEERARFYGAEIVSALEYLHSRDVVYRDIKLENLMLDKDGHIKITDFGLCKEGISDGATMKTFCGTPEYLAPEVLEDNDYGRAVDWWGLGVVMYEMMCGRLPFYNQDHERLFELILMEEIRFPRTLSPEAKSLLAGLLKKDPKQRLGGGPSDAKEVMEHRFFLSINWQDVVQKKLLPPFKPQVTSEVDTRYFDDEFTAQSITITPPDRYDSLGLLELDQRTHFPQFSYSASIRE"}, "BRAF": {"biological_target": "BRAF (Homo sapiens, UniProt P15056)"}, "CAMK1G": {"biological_target": "CAMK1G (Homo sapiens, UniProt Q96NX5)"}, "CAMK2B": {"biological_target": "CAMK2B (Homo sapiens, UniProt Q13554)", "sequence (Q13554 whole entry)": "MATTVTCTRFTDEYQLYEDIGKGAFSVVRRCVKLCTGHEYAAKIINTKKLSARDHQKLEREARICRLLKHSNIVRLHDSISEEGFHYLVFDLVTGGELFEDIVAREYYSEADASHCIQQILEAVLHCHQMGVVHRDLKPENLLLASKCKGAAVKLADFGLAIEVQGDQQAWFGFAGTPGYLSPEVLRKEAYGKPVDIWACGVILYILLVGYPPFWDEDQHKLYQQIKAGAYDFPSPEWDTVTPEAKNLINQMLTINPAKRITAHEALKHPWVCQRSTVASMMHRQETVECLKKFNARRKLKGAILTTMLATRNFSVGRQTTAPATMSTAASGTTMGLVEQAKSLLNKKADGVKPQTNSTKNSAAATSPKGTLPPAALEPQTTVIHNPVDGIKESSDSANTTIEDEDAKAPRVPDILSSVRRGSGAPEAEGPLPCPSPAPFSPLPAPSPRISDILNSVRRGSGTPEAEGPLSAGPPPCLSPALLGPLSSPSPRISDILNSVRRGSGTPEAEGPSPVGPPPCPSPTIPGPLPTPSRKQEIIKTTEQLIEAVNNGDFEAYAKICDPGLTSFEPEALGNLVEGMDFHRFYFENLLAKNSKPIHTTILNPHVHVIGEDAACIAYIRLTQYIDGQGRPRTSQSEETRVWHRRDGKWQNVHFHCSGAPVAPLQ"}, "CDK5": {"biological_target": "CDK5 (Homo sapiens, UniProt Q00535)"}, "CDK9": {"biological_target": "CDK9 (Homo sapiens, UniProt P50750)", "sequence (P50750 whole entry)": "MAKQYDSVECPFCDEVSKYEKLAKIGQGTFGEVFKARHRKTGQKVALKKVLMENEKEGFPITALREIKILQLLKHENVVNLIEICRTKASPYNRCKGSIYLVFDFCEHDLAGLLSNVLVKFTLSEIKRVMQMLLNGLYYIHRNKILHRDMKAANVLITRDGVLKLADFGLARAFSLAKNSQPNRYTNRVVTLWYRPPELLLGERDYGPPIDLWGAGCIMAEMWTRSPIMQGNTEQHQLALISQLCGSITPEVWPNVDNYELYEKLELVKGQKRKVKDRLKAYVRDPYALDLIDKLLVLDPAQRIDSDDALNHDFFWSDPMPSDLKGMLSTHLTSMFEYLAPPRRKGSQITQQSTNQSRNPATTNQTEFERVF"}, "CSNK1D": {"biological_target": "CSNK1D (Homo sapiens, UniProt P48730)", "sequence (P48730 whole entry)": "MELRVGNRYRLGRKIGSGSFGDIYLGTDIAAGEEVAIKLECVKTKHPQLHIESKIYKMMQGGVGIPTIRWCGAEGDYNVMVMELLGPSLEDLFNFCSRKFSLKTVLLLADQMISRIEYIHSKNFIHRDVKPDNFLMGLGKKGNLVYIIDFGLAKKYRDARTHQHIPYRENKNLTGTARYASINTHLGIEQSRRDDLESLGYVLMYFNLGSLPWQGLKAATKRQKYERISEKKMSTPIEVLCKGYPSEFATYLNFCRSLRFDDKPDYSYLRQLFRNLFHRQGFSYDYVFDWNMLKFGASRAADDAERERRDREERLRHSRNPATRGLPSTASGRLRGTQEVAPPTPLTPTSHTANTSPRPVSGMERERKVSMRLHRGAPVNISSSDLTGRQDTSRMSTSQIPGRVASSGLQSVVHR"}, "CSNK1G2": {"biological_target": "CSNK1G2 (Homo sapiens, UniProt P78368)"}, "DAPK1": {"biological_target": "DAPK1 (Homo sapiens, UniProt P53355)"}, "DYRK2": {"biological_target": "DYRK2 (Homo sapiens, UniProt Q92630)"}, "EGFR (L858R)": {"biological_target": "EGFR (L858R) (Homo sapiens, UniProt P00533, L858R)"}, "EIF2AK1": {"biological_target": "EIF2AK1 (Homo sapiens, UniProt Q9BQI3)"}, "FLT3 (D835H)": {"biological_target": "FLT3 (D835H) (Homo sapiens, UniProt P36888, D835H)"}, "HIPK4": {"biological_target": "HIPK4 (Homo sapiens, UniProt Q8NE63)", "sequence (Q8NE63 whole entry)": "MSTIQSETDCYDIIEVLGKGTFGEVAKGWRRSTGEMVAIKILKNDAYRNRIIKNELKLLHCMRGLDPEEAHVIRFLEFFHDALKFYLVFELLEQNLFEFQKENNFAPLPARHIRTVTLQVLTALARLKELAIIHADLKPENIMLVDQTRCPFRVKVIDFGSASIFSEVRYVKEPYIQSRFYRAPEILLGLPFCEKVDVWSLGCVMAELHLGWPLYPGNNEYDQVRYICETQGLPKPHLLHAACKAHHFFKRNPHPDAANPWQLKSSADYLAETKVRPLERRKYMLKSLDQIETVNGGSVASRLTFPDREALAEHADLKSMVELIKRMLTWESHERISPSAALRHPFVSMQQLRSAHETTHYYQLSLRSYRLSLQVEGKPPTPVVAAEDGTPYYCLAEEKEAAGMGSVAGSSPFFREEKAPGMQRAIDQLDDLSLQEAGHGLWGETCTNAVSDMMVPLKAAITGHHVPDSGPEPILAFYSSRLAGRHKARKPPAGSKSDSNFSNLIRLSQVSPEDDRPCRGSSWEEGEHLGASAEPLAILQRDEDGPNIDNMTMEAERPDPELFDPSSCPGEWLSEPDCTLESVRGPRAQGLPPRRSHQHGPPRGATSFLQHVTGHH"}, "IKK-epsilon": {"biological_target": "IKK-epsilon (Homo sapiens, UniProt Q14164)"}, "MAPKAPK5": {"biological_target": "MAPKAPK5 (Homo sapiens, UniProt Q8IW41)"}, "MARK1": {"biological_target": "MARK1 (Homo sapiens, UniProt Q9P0L2)"}, "MEK4": {"biological_target": "T1, MEK4 (Homo sapiens, UniProt P45985)", "T1 construct": "T7 phage fusion (stated for most kinases of the panel only); made in house; host or cells: T7 phage in E. coli (BL21-derived) or HEK-293 cells"}, "MLK3": {"biological_target": "T2, MLK3 (Homo sapiens, UniProt Q16584)", "T2 construct": "T7 phage fusion (stated for most kinases of the panel only); made in house; host or cells: T7 phage in E. coli (BL21-derived) or HEK-293 cells"}, "MST2": {"biological_target": "T3, MST2 (Homo sapiens, UniProt Q13188)", "T3 construct": "T7 phage fusion (stated for most kinases of the panel only); made in house; host or cells: T7 phage in E. coli (BL21-derived) or HEK-293 cells"}, "MUSK": {"biological_target": "T4, MUSK (Homo sapiens, UniProt O15146)", "T4 construct": "T7 phage fusion (said for most assays); made in house"}, "MYLK4": {"biological_target": "T5, MYLK4 (Homo sapiens, UniProt Q86YV6)", "T5 construct": "T7 phage fusion (said for most assays); made in house"}, "NEK2": {"biological_target": "T6, NEK2 (Homo sapiens, UniProt P51955)", "T6 construct": "T7 phage fusion (said for most assays); made in house"}, "PAK4": {"biological_target": "PAK4 (Homo sapiens, UniProt O96013)"}, "PCTK1": {"biological_target": "PCTK1 (Homo sapiens, UniProt Q00536)", "sequence (Q00536 whole entry)": "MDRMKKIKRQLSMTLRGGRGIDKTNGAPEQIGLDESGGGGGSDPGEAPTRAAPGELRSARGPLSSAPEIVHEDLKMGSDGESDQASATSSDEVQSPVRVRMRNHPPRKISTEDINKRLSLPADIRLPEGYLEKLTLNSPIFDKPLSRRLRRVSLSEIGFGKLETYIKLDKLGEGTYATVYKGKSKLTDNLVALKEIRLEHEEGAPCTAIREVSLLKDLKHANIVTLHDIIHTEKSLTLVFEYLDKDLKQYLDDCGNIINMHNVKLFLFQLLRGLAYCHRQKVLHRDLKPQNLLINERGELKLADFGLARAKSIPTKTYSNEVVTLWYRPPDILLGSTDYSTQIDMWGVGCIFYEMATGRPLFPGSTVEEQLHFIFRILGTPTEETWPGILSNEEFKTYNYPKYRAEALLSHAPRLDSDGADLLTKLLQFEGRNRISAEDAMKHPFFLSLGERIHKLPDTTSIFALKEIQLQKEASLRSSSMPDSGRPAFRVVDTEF"}, "PCTK2": {"biological_target": "PCTK2 (Homo sapiens, UniProt Q00537)"}, "PIK3CA": {"biological_target": "PIK3CA (Homo sapiens, UniProt P42336)"}, "PIK3CA (H1047Y)": {"biological_target": "PIK3CA (H1047Y) (Homo sapiens, UniProt P42336, H1047Y)"}, "PIKFYVE": {"biological_target": "PIKFYVE (Homo sapiens, UniProt Q9Y2I7)"}, "PIP5K1C": {"biological_target": "PIP5K1C (Homo sapiens, UniProt O60331)", "sequence (O60331 whole entry)": "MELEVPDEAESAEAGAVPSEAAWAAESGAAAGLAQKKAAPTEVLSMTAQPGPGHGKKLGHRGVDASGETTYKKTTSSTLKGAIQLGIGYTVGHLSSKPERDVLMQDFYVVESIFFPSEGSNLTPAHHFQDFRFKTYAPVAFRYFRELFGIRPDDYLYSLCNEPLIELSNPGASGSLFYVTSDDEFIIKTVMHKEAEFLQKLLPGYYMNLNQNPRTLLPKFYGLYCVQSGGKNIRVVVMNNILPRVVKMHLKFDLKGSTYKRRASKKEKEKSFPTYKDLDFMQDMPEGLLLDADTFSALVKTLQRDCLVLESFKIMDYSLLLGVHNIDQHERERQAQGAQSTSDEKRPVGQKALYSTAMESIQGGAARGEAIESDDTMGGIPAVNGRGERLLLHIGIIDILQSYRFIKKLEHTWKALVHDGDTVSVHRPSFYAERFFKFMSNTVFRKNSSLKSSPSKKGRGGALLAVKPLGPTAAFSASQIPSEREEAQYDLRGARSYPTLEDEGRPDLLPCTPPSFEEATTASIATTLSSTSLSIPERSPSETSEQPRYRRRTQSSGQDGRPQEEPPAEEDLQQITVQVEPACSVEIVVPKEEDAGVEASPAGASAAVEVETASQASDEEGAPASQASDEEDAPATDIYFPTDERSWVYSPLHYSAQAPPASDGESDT"}, "[1]": {"biological_target": "RSK1 (Kin.Dom.1-N-terminal) (Homo sapiens, UniProt Q15418)", "sequence (Q15418 62-321 limits assumed)": "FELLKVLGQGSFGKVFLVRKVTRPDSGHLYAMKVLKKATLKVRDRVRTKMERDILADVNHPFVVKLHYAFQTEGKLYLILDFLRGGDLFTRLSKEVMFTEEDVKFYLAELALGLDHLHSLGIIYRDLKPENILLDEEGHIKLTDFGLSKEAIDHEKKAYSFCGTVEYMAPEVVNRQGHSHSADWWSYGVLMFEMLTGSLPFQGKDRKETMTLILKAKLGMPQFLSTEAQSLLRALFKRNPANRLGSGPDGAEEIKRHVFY"}, "[2]": {"biological_target": "RSK1 (Kin.Dom.2-C-terminal) (Homo sapiens, UniProt Q15418)", "sequence (Q15418 418-675 limits assumed)": "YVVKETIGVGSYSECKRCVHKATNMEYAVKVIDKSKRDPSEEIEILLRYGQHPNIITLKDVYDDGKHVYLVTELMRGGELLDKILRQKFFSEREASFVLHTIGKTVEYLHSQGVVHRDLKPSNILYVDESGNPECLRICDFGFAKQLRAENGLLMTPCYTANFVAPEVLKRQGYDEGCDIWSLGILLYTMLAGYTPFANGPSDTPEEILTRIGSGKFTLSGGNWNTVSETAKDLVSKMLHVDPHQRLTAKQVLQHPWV"}, "[3]": {"biological_target": "RSK2 (Kin.Dom.1-N-terminal) (Homo sapiens, UniProt P51812)", "sequence (P51812 68-327 limits assumed)": "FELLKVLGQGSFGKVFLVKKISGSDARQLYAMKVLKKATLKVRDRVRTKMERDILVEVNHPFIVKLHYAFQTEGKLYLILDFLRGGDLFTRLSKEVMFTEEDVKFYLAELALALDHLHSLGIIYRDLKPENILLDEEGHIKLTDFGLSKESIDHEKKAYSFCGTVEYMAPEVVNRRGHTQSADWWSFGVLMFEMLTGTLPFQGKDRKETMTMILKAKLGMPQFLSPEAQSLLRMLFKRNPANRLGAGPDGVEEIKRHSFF"}, "SgK110": {"biological_target": "SgK110 (Homo sapiens, UniProt P0C264)", "sequence (P0C264 whole entry)": "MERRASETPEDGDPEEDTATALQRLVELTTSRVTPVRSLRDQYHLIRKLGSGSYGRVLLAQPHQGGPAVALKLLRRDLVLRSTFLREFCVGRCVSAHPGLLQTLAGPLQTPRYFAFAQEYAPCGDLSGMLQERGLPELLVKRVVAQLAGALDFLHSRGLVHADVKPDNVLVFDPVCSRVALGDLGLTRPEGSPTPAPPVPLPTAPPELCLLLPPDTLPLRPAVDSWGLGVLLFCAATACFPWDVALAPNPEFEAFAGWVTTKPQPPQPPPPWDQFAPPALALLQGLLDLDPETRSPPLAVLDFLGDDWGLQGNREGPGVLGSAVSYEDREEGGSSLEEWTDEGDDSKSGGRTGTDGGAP"}, "SLK": {"biological_target": "SLK (Homo sapiens, UniProt Q9H2G2)"}, "TAK1": {"biological_target": "TAK1 (Homo sapiens, UniProt O43318)"}, "TLK1": {"biological_target": "TLK1 (Homo sapiens, UniProt Q9UKI8)"}, "YSK1": {"biological_target": "YSK1 (Homo sapiens, UniProt O00506)"}}, "data": [{"molecule": "Cc1cc(Oc2cc(NC(=O)C3CC3)ncn2)ccc1NC(=O)Nc1ccc(Cl)c(C(F)(F)F)c1", "note": "[CBT-102]", "values": [{"measurement": "remaining activity at 1 µM", "setting": "ABL1-phosphorylated", "result": 67, "unit": "%"}, {"measurement": "remaining activity at 1 µM", "setting": "AKT2", "result": 100, "unit": "%"}, {"measurement": "remaining activity at 1 µM", "setting": "BRAF", "result": 6.1, "unit": "%"}, {"measurement": "remaining activity at 1 µM", "setting": "CAMK1G", "result": 91, "unit": "%"}, {"measurement": "remaining activity at 1 µM", "setting": "CAMK2B", "result": 97, "unit": "%"}, {"measurement": "remaining activity at 1 µM", "setting": "CDK5", "result": 92, "unit": "%"}, {"measurement": "remaining activity at 1 µM", "setting": "CDK9", "result": 46, "unit": "%"}, {"measurement": "remaining activity at 1 µM", "setting": "CSNK1D", "result": 77, "unit": "%"}, {"measurement": "remaining activity at 1 µM", "setting": "CSNK1G2", "result": 94, "unit": "%"}, {"measurement": "remaining activity at 1 µM", "setting": "DAPK1", "result": 98, "unit": "%"}, {"measurement": "remaining activity at 1 µM", "setting": "DYRK2", "result": 89, "unit": "%"}, {"measurement": "remaining activity at 1 µM", "setting": "EGFR (L858R)", "result": 87, "unit": "%"}, {"measurement": "remaining activity at 1 µM", "setting": "EIF2AK1", "result": 99, "unit": "%"}, {"measurement": "remaining activity at 1 µM", "setting": "FLT3 (D835H)", "result": 42, "unit": "%"}, {"measurement": "remaining activity at 1 µM", "setting": "HIPK4", "result": 11, "unit": "%"}, {"measurement": "remaining activity at 1 µM", "setting": "IKK-epsilon", "result": 100, "unit": "%"}, {"measurement": "remaining activity at 1 µM", "setting": "MAPKAPK5", "result": 93, "unit": "%"}, {"measurement": "remaining activity at 1 µM", "setting": "MARK1", "result": 100, "unit": "%"}, {"measurement": "remaining activity at 1 µM", "setting": "MEK4", "result": 100, "unit": "%"}, {"measurement": "remaining activity at 1 µM", "setting": "MLK3", "result": 92, "unit": "%"}, {"measurement": "remaining activity at 1 µM", "setting": "MST2", "result": 92, "unit": "%"}, {"measurement": "remaining activity at 1 µM", "setting": "MUSK", "result": 47, "unit": "%"}, {"measurement": "remaining activity at 1 µM", "setting": "MYLK4", "result": 100, "unit": "%"}, {"measurement": "remaining activity at 1 µM", "setting": "NEK2", "result": 98, "unit": "%"}, {"measurement": "remaining activity at 1 µM", "setting": "PAK4", "result": 100, "unit": "%"}, {"measurement": "remaining activity at 1 µM", "setting": "PCTK1", "result": 88, "unit": "%"}, {"measurement": "remaining activity at 1 µM", "setting": "PCTK2", "result": 44, "unit": "%"}, {"measurement": "remaining activity at 1 µM", "setting": "PIK3CA", "result": 100, "unit": "%"}, {"measurement": "remaining activity at 1 µM", "setting": "PIK3CA (H1047Y)", "result": 100, "unit": "%"}, {"measurement": "remaining activity at 1 µM", "setting": "PIKFYVE", "result": 91, "unit": "%"}, {"measurement": "remaining activity at 1 µM", "setting": "PIP5K1C", "result": 93, "unit": "%"}, {"measurement": "remaining activity at 1 µM", "setting": "[1]", "result": 100, "unit": "%"}, {"measurement": "remaining activity at 1 µM", "setting": "[2]", "result": 94, "unit": "%"}, {"measurement": "remaining activity at 1 µM", "setting": "[3]", "result": 97, "unit": "%"}, {"measurement": "remaining activity at 1 µM", "setting": "SgK110", "result": 98, "unit": "%"}, {"measurement": "remaining activity at 1 µM", "setting": "SLK", "result": 1.4, "unit": "%"}, {"measurement": "remaining activity at 1 µM", "setting": "TAK1", "result": 12, "unit": "%"}, {"measurement": "remaining activity at 1 µM", "setting": "TLK1", "result": 100, "unit": "%"}, {"measurement": "remaining activity at 1 µM", "setting": "YSK1", "result": 100, "unit": "%"}]}]}
